Source: patent US5008260A, “Cephem derivatives” (Eisai Co., Ltd., priority 1985, dated 1991)
Values after ≈ are worked out from the molar mass of the structure shown.

Key:
[1] = mouse, intravenous injection; prior-art compound; cited from earlier work
[2] = tested on: Citrobacter freundii EC-34; test: Antibacterial activity (MIC), Citrobacter freundii EC-34; type: cell-based; details: EC34; Citrobacter freundii EC-34, lactamase producing bacteria
[3] = tested on: Serratia marcescens ES-75; test: Antibacterial activity (MIC), Serratia marcescens ES-75; type: cell-based; details: ES75
[4] = tested on: Staphylococcus aureus E31106; test: Antibacterial activity (MIC), Staphylococcus aureus E31106; type: cell-based; details: Staphylococcus aureus E31106, lactamase producing bacteria
[5] = tested on: Pseudomonas aeruginosa EP-01; test: Antibacterial activity (MIC), Pseudomonas aeruginosa EP-01; type: cell-based; details: EP01
[6] = Acute toxicity LD50 (mouse, intravenous injection); details: in vivo
Escherichia coli NIHJ = test: Antibacterial activity (MIC), Escherichia coli NIHJ; type: cell-based
[7] = tested on: Pseudomonas maltophilia E04004; test: Antibacterial activity (MIC), Pseudomonas maltophilia E04004; type: cell-based; details: Stenotrophomonas maltophilia
[8] = tested on: Staphylococcus aureus 209-P; test: Antibacterial activity (MIC), Staphylococcus aureus 209-P; type: cell-based

Structure (SMILES) | acute toxic value LD50 [1] [mg/kg] | MIC [2] [µg/mL] | MIC [3] [µg/mL] | MIC [4] [µg/mL] | MIC [5] [µg/mL] | LD50 [6] [mg/kg] | MIC (Escherichia coli NIHJ) [µg/mL] | MIC [7] [µg/mL] | MIC [8] [µg/mL]
CO/N=C(\C(=O)N[C@@H]1C(=O)N2C(C(=O)[O-])=C(C[N+]34CCC(CC3)CC4)CS[C@H]12)c1csc(N)n1 [7β-[(Z)-2-(2-aminothiazol-4-yl)-2-methoxyiminoacetamido]-3-(1-quinuclidinio)methyl-3-cephem-4-carboxylate] | ≤ 100 |  |  |  |  |  |  |  | 
CO/N=C(\C(=O)N[C@@H]1C(=O)N2C(C(=O)[O-])=C(C[N+]34CCC(O)(CC3)C4)CS[C@H]12)c1csc(N)n1 [Example 1, 7β-[(Z)-2-(2-Aminothiazol-4-yl)-2-methoxyiminoacetamido]-3-(4-hydroxy-1,4-methylene-1-piperidinio)methyl-3-cephem-4-carboxylate] |  | 0.1 (≈ 0.197 µM) | 0.1 (≈ 0.197 µM) | 100 (≈ 197 µM) | 1.56 (≈ 3.07 µM) | > 3000 | 0.05 (≈ 0.0983 µM) | 25 (≈ 49.2 µM) | 0.8 (≈ 1.57 µM)
CO/N=C(\C(=O)N[C@@H]1C(=O)N2C(C(=O)[O-])=C(C[N+]34CCC(O)(CC3)C4)CS[C@H]12)c1nsc(N)n1 [Example 2, 7β-[(Z)-2-(5-Amino-1,2,4-thiadiazol-3-yl)-2-methoxyiminoacetamido]-3-(4-hydroxy-1,4-methylene-1-piperidinio)methyl-3-cephem-4-carboxylate] |  | 0.1 (≈ 0.196 µM) | 0.2 (≈ 0.392 µM) | 50 (≈ 98.1 µM) | 0.8 (≈ 1.57 µM) | > 3000 | 0.1 (≈ 0.196 µM) | 12.5 (≈ 24.5 µM) | 0.8 (≈ 1.57 µM)
CO/N=C(\C(=O)N[C@@H]1C(=O)N2C(C(=O)[O-])=C(C[N+]34CCC(O)(CC3)CC4)CS[C@H]12)c1csc(N)n1 [Example 3, 7β-[(Z)-2-(2-Aminothiazol-4-yl)-2-methoxyiminoacetamido]-3-(4-hydroxy-1-quinuclidinio)methyl-3-cephem-4-carboxylate] |  | 0.1 (≈ 0.191 µM) | 0.1 (≈ 0.191 µM) | 100 (≈ 191 µM) | 1.56 (≈ 2.99 µM) | > 3000 | 0.05 (≈ 0.0957 µM) | 6.25 (≈ 12 µM) | 0.8 (≈ 1.53 µM)
CO/N=C(\C(=O)N[C@@H]1C(=O)N2C(C(=O)[O-])=C(C[N+]34CCC(O)(CC3)CC4)CS[C@H]12)c1nsc(N)n1 [Example 4, 7β-[(Z)-2-(5-Amino-1,2,4-thiadiazol-3-yl)-2-methoxyiminoacetamido]-3-(4-hydroxy-1-quinuclidinio)methyl-3-cephem-4-carboxylate] |  | 0.1 (≈ 0.191 µM) | 0.2 (≈ 0.382 µM) | 25 (≈ 47.7 µM) | 0.8 (≈ 1.53 µM) | > 3000 | 0.1 (≈ 0.191 µM) | 6.25 (≈ 11.9 µM) | 1.56 (≈ 2.98 µM)
CO/N=C(\C(=O)N[C@@H]1C(=O)N2C(C(=O)[O-])=C(C[N+]34CCC(C(N)=O)(CC3)CC4)CS[C@H]12)c1csc(N)n1 [Example 5, 7β-[(Z)-2-(2-Aminothiazol-4-yl)-2-methoxyiminoacetamido]-3-(4-carbamoyl-1-quinuclidinio)methyl-3-cephem-4-carboxylate] |  | 0.1 (≈ 0.182 µM) | 0.05 (≈ 0.091 µM) | 100 (≈ 182 µM) | 1.56 (≈ 2.84 µM) | > 3000 | 0.05 (≈ 0.091 µM) | 12.5 (≈ 22.7 µM) | 1.56 (≈ 2.84 µM)
CO/N=C(\C(=O)N[C@@H]1C(=O)N2C(C(=O)[O-])=C(C[N+]34CCC(C(N)=O)(CC3)CC4)CS[C@H]12)c1nsc(N)n1 [Example 6, 7β-[(Z)-2-(5-Amino-1,2,4-thiadiazol-3-yl)-2-methoxyiminoacetamido]-3-(4-carbamoyl-1-quinuclidinio)methyl-3-cephem-4-carboxylate] |  | 0.1 (≈ 0.182 µM) | 0.2 (≈ 0.363 µM) | 25 (≈ 45.4 µM) | 0.4 (≈ 0.726 µM) | > 3000 | 0.1 (≈ 0.182 µM) | 3.13 (≈ 5.68 µM) | 3.13 (≈ 5.68 µM)
CO/N=C(\C(=O)N[C@@H]1C(=O)N2C(C(=O)[O-])=C(C[N+]34CCC(CO)(CC3)CC4)CS[C@H]12)c1nsc(N)n1 [Example 14, 7β-[(Z)-2-(5-Amino-1,2,4-thiadiazol-3-yl)-2-methoxyiminoacetamido]-3-[4-hydroxymethyl-1-quinuclidinio]methyl-3-cephem-4-carboxylate] |  | 0.1 (≈ 0.186 µM) | 0.2 (≈ 0.372 µM) | 50 (≈ 93 µM) | 0.8 (≈ 1.49 µM) |  | 0.1 (≈ 0.186 µM) | 3.13 (≈ 5.82 µM) | 1.56 (≈ 2.9 µM)
CO/N=C(\C(=O)N[C@@H]1C(=O)N2C(C(=O)[O-])=C(C[N+]34CCC(C)(CC3)CC4)CS[C@H]12)c1nsc(N)n1 [Example 15, 7β-[(Z)-2-(5-Amino-1,2,4-thiadiazol-3-yl)-2-methoxyiminoacetamido]-3-(4-methyl-1-quinuclidinio)methyl-3-cephem-4-carboxylate] |  | 0.05 (≈ 0.0959 µM) | 0.2 (≈ 0.383 µM) | 50 (≈ 95.9 µM) | 0.8 (≈ 1.53 µM) |  | 0.05 (≈ 0.0959 µM) | 1.56 (≈ 2.99 µM) | 0.8 (≈ 1.53 µM)
